Measurements taken from publication PMC9583304 (ACS Omega, 2022).

Target: T1, porcine pancreatic lipase (Sus scrofa, UniProt P00591)
T1 sequence (P00591 1-450): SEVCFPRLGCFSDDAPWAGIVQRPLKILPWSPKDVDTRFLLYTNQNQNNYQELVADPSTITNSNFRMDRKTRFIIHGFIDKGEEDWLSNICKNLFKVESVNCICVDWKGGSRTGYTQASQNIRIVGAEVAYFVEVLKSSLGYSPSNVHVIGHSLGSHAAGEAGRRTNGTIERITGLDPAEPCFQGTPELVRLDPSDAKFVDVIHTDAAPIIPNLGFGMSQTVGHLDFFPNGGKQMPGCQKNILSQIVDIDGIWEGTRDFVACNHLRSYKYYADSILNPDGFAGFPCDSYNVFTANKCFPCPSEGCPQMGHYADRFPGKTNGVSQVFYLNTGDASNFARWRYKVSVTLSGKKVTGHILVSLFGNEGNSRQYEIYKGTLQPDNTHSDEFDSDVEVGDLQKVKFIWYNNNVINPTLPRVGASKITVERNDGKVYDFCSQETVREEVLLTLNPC
Test: Pancreatic lipase assay
Format: biochemical

## O=C(O[C@@H]1C=C[C@@H](OC(=O)c2ccccc2)[C@](O)(CO)[C@H]1O)c1ccccc1 (relative stereo) [Compound 1, (1R*,4R*,5S*,6S*)-5,6-dihydroxy-5-(hydroxymethyl)cyclohex-2-ene-1,4-diyl dibenzoate]
  IC50: 11.2 µM
